Results published in patent US11937603B2, “Maleimide derivatives having herbicidal activity, agronomic compositions of the maleimide derivatives, and uses thereof” (Gowan Company, LLC, priority 2018, dated 2024).

Experiments:
Format in all cases: in vivo
Echinochloa crus-galli = experiment: Herbicidal activity in post-emergence; conditions: dose of 250 g/ha, post-emergence (BBCH 11-12), twenty-one days after treatment, vs untreated control
Method: (§1) The herbicidal activity of the compounds of the invention in post-emergence was evaluated according to the following operating modes.
(§2) The plant species of interest (weeds or crops) were sown in pots with a diameter greater than 10 cm, a height of 10 cm and containing sandy soil. Six pots were used for each plant species.
(§3) Water was added to each pot in an amount suitable for the germination of the seeds. The pots were then divided into two groups each containing 3 pots for each weed or crop.
(§4) Upon reaching the phenological stage of the plants with 1-2 extended leaves (BBCH 11-12), the first group of pots was treated with the same hydroacetone dispersion containing 20% acetone by volume, the compound under evaluation at the desired dose and Tween 20 at 0.5% by weight, indicated in Example 6.
(§5) The second group was treated only with a hydroacetone solution containing acetone at 20% by volume and Tween 20 at 0.5% by weight, and was used as a comparison term (control).
(§6) All the pots were kept under observation in a conditioned environment (greenhouse) under the following environmental conditions: • temperature: 24° C. during the day and 18° C. at night • relative humidity: >50% • photoperiod: 16 hours; • light intensity: 12,000 lux.
(§7) The pots were uniformly watered as needed, so as to ensure a degree of humidity sufficient for a good development of the plants.
(§8) Twenty-one days after treatment, the herbicidal activity was evaluated according to the percentage of damage (scale 0-100%) found on the treated plants compared to the untreated plants (control): • 0%=No effect on the plants • 100%=Complete death of the plants
(§9) Nrs. 11,4,2,3 compared with a hydroacetone dispersion containing the Compound CR1 described in EP0297378.

Sida spinosa = experiment: Herbicidal activity in post-emergence; conditions: dose of 250 g/ha, post-emergence (BBCH 11-12), twenty-one days after treatment, vs untreated control
Method: as §1, §2, §3, §4, §5, §6, §7, §8, §9

Digitaria sanguinalis = experiment: Herbicidal activity in post-emergence; conditions: dose of 250 g/ha, post-emergence (BBCH 11-12), twenty-one days after treatment, vs untreated control
Method: as §1, §2, §3, §4, §5, §6, §7, §8, §9

Solanum nigra = experiment: Herbicidal activity in pre-emergence; conditions: dose of 250 g/ha, twenty-one days after treatment, vs untreated control
Method: (§10) The herbicidal activity of the compounds of the invention in pre-emergence was evaluated according to the following operating modes.
(§11) The plant species of interest (weeds or crops) were sown in pots with a diameter of 10 cm, a height of 10 cm and containing sandy soil. Six pots of each plant species were used.
as §3
(§12) One day after sowing, the first group of pots was treated with a dispersion having the following composition:
(§13) The dispersion was prepared by adding a desired dose of a compound of the present invention to a hydroacetone solution containing acetone at 20% by volume and Tween 20 at 0.5% by weight, with respect to the total weight of the dispersion and applied on a surface of 2 square meters. […]
as §5, §6, §7, §8
(§14) Nrs. 4 and 2 compared with a dispersion containing the Compound CR1 described in EP0297378 instead of the compound having general formula (I): […]

Lolium rigidum = experiment: Herbicidal activity in pre-emergence; conditions: dose of 250 g/ha, twenty-one days after treatment, vs untreated control
Method: as §10, §11, §3, §12, §13, §5, §6, §7, §8, §14

Setaria viridis = experiment: Herbicidal activity in pre-emergence; conditions: dose of 250 g/ha, twenty-one days after treatment, vs untreated control
Method: as §10, §11, §3, §12, §13, §5, §6, §7, §8, §14

Amaranthus retroflexus = experiment: Herbicidal activity in pre-emergence; conditions: dose of 250 g/ha, twenty-one days after treatment, vs untreated control
Method: as §10, §11, §3, §12, §13, §5, §6, §7, §8, §14

Abutilon theophrasti = experiment: Herbicidal activity in pre-emergence; conditions: dose of 250 g/ha, twenty-one days after treatment, vs untreated control
Method: as §10, §11, §3, §12, §13, §5, §6, §7, §8, §14

Row | Molecule | Herbicidal activity in post-emergence (percentage of damage, scale 0-100%) (Echinochloa crus-galli) [%] | Herbicidal activity in post-emergence (percentage of damage, scale 0-100%) (Sida spinosa) [%] | Herbicidal activity in post-emergence (percentage of damage, scale 0-100%) (Digitaria sanguinalis) [%] | Herbicidal activity in pre-emergence (percentage of damage, scale 0-100%) (Solanum nigra) [%] | Herbicidal activity in pre-emergence (percentage of damage, scale 0-100%) (Lolium rigidum) [%] | Herbicidal activity in pre-emergence (percentage of damage, scale 0-100%) (Setaria viridis) [%] | Herbicidal activity in pre-emergence (percentage of damage, scale 0-100%) (Amaranthus retroflexus) [%] | Herbicidal activity in pre-emergence (percentage of damage, scale 0-100%) (Abutilon theophrasti) [%]
1 | 1-(5-tert-butyl-1,3,4-thiadiazol-2-yl)-3,4-dimethyl-2-methoxyethylcarbonate-2H-pyrrol-2-yl-5-one [Compound 3] | 95 | 90 | 90 | – | – | – | – | –
2 | CC1=C(C)C(O)N(c2cc(C(C)(C)C)on2)C1=O (stereo not drawn) [CR1, 1-(5-tert-butylisoxazol-3-yl)-2-hydroxy-3,4-dimethyl-2H-pyrrol-5-one, reference compound] | 85 | 40 | 40 | 90 | 80 | 79 | 60 | 90
3 | COCC(=O)OC1C(C)=C(C)C(=O)N1c1nnc(C(C)(C)C)s1 (stereo not drawn) [Compound 2, 1-(5-tert-butyl-1,3,4-thiadiazol-2-yl)-3,4-dimethyl-2-methoxyacetate-2H-pyrrol-5-one] | 100 | 90 | 100 | 95 | 100 | 100 | 92 | 95
4 | CC1=C(C)C(OC(=O)C2CC2)N(c2cc(C(C)(C)C)on2)C1=O (stereo not drawn) [Compound 4, 1-(5-tert-butylisoxazole-3-yl)-2-cyclo-propanecarbonyloxy-3,4-dimethyl-2H-pyrrol-5-one] | 100 | 100 | 100 | 100 | 90 | 100 | 80 | 100
